What was measured:
Human (6-His)Sortilin = target: T1, Human (6-His)Sortilin (Homo sapiens, UniProt Q99523); experiment: Human Sortilin GCI (Grating-Coupled Interferometry) binding assay; conditions: Creoptix WAVE-RAPID, single concentration, immobilised Human (6-His)Sortilin, 1:1 kinetic binding model; read-out: h-Sortilin GCI KD
T1 construct: purchased RnD Systems
T1 sequence (Q99523 78-831): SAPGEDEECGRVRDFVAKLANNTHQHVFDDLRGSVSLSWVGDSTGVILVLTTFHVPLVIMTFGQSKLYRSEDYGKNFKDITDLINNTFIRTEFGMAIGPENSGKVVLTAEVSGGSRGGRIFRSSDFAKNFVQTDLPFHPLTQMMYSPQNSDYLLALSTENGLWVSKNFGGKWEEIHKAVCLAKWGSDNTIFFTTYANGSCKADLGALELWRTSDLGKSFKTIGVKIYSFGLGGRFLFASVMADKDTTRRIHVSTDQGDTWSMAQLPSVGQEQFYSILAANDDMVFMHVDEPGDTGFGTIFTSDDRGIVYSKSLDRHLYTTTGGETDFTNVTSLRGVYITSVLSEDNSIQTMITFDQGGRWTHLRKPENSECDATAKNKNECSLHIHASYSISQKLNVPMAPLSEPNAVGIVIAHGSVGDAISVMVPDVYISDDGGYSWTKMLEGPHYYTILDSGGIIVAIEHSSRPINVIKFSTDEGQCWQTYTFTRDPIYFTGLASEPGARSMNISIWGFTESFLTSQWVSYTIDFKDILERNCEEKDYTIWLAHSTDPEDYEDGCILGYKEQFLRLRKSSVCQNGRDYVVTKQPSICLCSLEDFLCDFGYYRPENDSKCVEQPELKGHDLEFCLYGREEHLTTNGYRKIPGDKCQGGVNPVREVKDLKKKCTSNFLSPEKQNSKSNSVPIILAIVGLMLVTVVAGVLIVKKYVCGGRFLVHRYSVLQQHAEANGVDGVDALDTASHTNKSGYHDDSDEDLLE
Description: The exemplified compounds of the invention were tested in a Grating-Coupled Interferometry (GCI) Sortilin binding assay. The Equilibrium dissociation constant (KD) is a measure of the propensity of a complex (i.e: a ligand and receptor) to dissociate and is used to describe the affinity of an interaction between the constituents of the complex (i.e: a ligand and receptor). The skilled person will recognise that the lower the KD value, the less of the compound needed to achieve the desired effect, and as a result, the chances of undesirable off-target effects are reduced.
Compound affinity was determined by measuring the association and dissociation of compounds to Human (6-His)Sortilin (RnD Systems) using a Creoptix Wave instrument (Creoptix - Malvern Panalytical). Both Human (6-His)Sortilin immobilisation and compound evaluation were performed in HBS-N running buffer: 10 mM HEPES pH 7.4, 150 mM NaCl, 1 % DMSO - Cytiva which was filtered and degassed for 15 minutes before use.
A 4PCH WAVEchip (Creoptix - Malvern Panalytical) was conditioned prior to immobilisiation using 0.2x HBS-N running buffer with 0.1 M Borate pH 9.0, 1 M NaCl (Xantec Bioanalytics) injected across all flow cells. A buffer exchange was performed to 1x HBS-N running buffer and Human (6-His)Sortilin was immobililised in pH 5.0 Acetate solution (Cytiva) via amine coupling following EDC/NHS (Cytiva) surface activation and then passivated via injection of 50 mM Tris pH 7.4.
Compounds were tested in 'WAVE-RAPID' assays at a single concentration (usually: 1 µM, 10 µM or 100 µM) in time-response format (short pulses of increasing duration) using either 'Weak-Binders' (Settings: 400 µl/min flow rate, 40 Hz acquisiton rate, 5 seconds association time and 20 seconds dissociation time) or 'Intermediate Binders' (Settings: 100 µl/min flow rate, 10 Hz acquisiton rate, 25 seconds association time and 300 seconds dissociation time) settings. Which was deemed most appropriate was based upon the affinity and kinetics of the compound tested.
DMSO calibration was performed as per manufacturers requirements by injection of running buffer containing DMSO 0.5% above that of the running buffer DMSO (1.5 % in that instance) every 20 cycles. All data was double referenced (blank and reference-channel subtracted) with KD values calculated by fitting to a `1:1 kinetic' binding model using 'WAVEcontrol' software (Creoptix - Malvern Panalytical).

h-Sortilin = target: T2, h-Sortilin (Homo sapiens, UniProt Q99523); experiment: Neurotensin scintillation proximity assay (SPA), displacement of [3H]-neurotensin binding; conditions: 150 nM 6his-Sortilin, 5 nM [3H]-Neurotensin, 8 concentrations, average of at least 2 determinations
T2 sequence (Q99523 78-831): T1 sequence (Q99523 78-831)
Description: The exemplified compounds of the invention were tested in a Neurotensin (NTS) scintillation proximity assay (SPA). NTS, which is a 13 amino acid neuropeptide, is a sortilin ligand. The IC50 is a measure of the amount of the compound required to inhibit the binding of NTS to sortilin by 50%. The skilled person will recognise that the lower the IC50 value, the less of the compound needed to achieve the desired effect, and as a result, the chances of undesirable off-target effects are reduced.
Compound affinity was determined by measuring the displacement of [^3H]-neurotensin binding to h-Sortilin in SPA format. Total volume of 40 µl in 50 mM HEPES pH 7.4 assay buffer containing 100 mM NaCl, 2.0 mM CaCl2, 0.1% BSA and 0.1% Tween-20. Compound pre-incubation for 30 minutes at room temperature with 150 nM of 6his-Sortilin before 5 nM [3H]-Neurotensin and Ni chelate imaging beads (Perkin Elmer) were added, after 6 hours the plate was read on a ViewLux with 360 s exposure time. Dose-response evaluation of compounds was performed with 8 concentrations of drugs (covering 3 decades). IC50 values were calculated by nonlinear regression using the sigmoid concentration-response (variable slope) using CDD Vault software. All values reported are average of at least 2 determinations.

Structure (SMILES) | Kd (Human (6-His)Sortilin) | IC50 (h-Sortilin)
CC(C)(C)CCC(C)(NCc1ccc2c(c1)OCCC2)C(=O)O (racemic) [Example 5, 2-{[(7-chromanyl)methyl]amino}-2,5,5-trimethylhexanoic acid] | 713 nM | 
CC(C)(C)CC[C@](C)(NCc1ccc2c(c1)CCCC2)C(=O)O [Example 2, (S)-2,5,5-trimethyl-2-(((5,6,7,8-tetrahydronaphthalen-2-yl)methyl)amino)hexanoic acid] | 79 nM | 440 nM
CC(C)(C)CCC(C)(NCc1ccc2c(c1)CCOC2)C(=O)O (racemic) [Example 7, 2-{[(6-isochromanyl)methyl]amino}-2,5,5-trimethylhexanoic acid] | 509 nM | 
CC(C)(C)CCC(C)(NCc1ccc2c(c1)CCC2)C(=O)O (racemic) [Example 4, 2-{[(5-indanyl)methyl]amino}-2,5,5-trimethylhexanoic acid] |  | 1070 nM
CC(C)(C)CCC(C)(NCc1ccc2c(c1)COCC2)C(=O)O (racemic) [Example 8, 2-{[(7-isochromanyl)methyl]amino}-2,5,5-trimethylhexanoic acid] | 587 nM | 
CC(C)(C)CCC(C)(NCc1ccc2c(c1)CCCO2)C(=O)O (racemic) [Example 6, 2-{[(6-chromanyl)methyl]amino}-2,5,5-trimethylhexanoic acid] | 760 nM | 
CC(C)(C)CCC(C)(NCc1ccc2c(c1)CCCC2)C(=O)O (stereo not drawn) [Example 1, 2,5,5-trimethyl-2-(((5,6,7,8-tetrahydronaphthalen-2-yl)methyl)amino)hexanoic acid] | 304 nM | 740 nM
